Measured values reported in patent US20090182057A1, “DEUTERATED AMINOGLYCIDAL COMPOUNDS” (AUSPEX PHARMACEUTICALS, INC., priority 2006, published 2009).

Settings: topical or ocular, 5 microgram per mL
Experimental: In Vitro Liver Microsomal Stability Assay
Liver microsomal stability assays are conducted at 1 mg per mL liver microsome protein with an NADPH-generating system in 2% NaHCO3 (2.2 mM NADPH, 25.6 mM glucose 6-phosphate, 6 units per mL glucose 6-phosphate dehydrogenase and 3.3 mM MgCl2). Test compounds are prepared as solutions in 20% acetonitrile-water, and added to the assay mixture (final assay concentration 5 microgram per mL) and incubated at 37° C. Final concentration of acetonitrile in the assay should be <1%. Aliquots (50 μL) are taken out at times 0, 15, 30, 45, and 60 min, and diluted with ice cold acetonitrile (200 μL) to stop the reactions. Samples are centrifuged at 12,000 RPM for 10 min to precipitate proteins. Supernatants are transferred to microcentrifuge tubes and stored for LC/MS/MS analysis of the degradation half-life of the test compounds.

Row | Compound | increase in the degradation half-life as compared to non-isotopically enriched metoprolol
1 | [2H]C([2H])(Cc1ccc(OCC(O)CNC(C)C)cc1)OC (stereo not shown) [d2-metoprolol, d2-1-Isopropylamino-3-[4-(2-methoxy-ethyl)-phenoxy]-propan-2-ol] | 10-30%
2 | [2H]C([2H])([2H])OCCc1ccc(OCC(O)CNC(C)C)cc1 (stereo not shown) [d3-metoprolol, d3-1-Isopropylamino-3-[4-(2-methoxy-ethyl)-phenoxy]-propan-2-ol] | 10-30%
3 | [2H]C([2H])([2H])OC([2H])([2H])Cc1ccc(OCC(O)CNC(C)C)cc1 (stereo not shown) [d5-metoprolol, d5-1-Isopropylamino-3-[4-(2-methoxy-ethyl)-phenoxy]-propan-2-ol] | 10-30%
4 | [2H]C([2H])([2H])OC([2H])([2H])Cc1ccc(OC([2H])([2H])C([2H])(O)C([2H])([2H])NC(C([2H])([2H])[2H])C([2H])([2H])[2H])cc1 (stereo not shown) [d16-metoprolol, d16-1-Isopropylamino-3-[4-(2-methoxy-ethyl)-phenoxy]-propan-2-ol] | 10-30%
